Assay results from ChEMBL document CHEMBL5528002, “Identification of selective 5-LOX and FLAP inhibitors as novel anti-inflammatory agents by ligand-based virtual screening” (Eur J Med Chem, 2024).
Calls of active or inactive are those of the source. The rule behind the calls is not given here.

Legend:
[1] = test system: Macrophage cell line; assay: Effect on lipid mediator formation in human M1-like phenotype MDM cells by measuring 4-HDHA formation at 10 uM pre-incubated for 15 mins followed by SACM stimulation and measured after 90 mins by UPLC-MS/MS analysis relative to control; assay type: functional; conditions: time 105 min, 1.75 h
[2] = test system: Macrophage cell line; assay: Effect on lipid mediator formation in human M2-like phenotype MDM cells by measuring PGF2alpha formation at 10 uM pre-incubated for 15 mins followed by SACM stimulation and measured after 90 mins by UPLC-MS/MS analysis (reference value: 72 +/- 21 pg/ml); assay type: functional; conditions: time 105 min, 1.75 h
[3] = test system: Neutrophil; assay: Inhibition of ROS production in PMA-induced human Neutrophil cells at 10 uM incubated for 10 mins by DCFH-DA dye based fluorometric assay; assay type: functional, cell-based
[4] = test system: Macrophage cell line; assay: Effect on lipid mediator formation in human M2-like phenotype MDM cells by measuring 17-HDHA formation at 10 uM pre-incubated for 15 mins followed by SACM stimulation and measured after 90 mins by UPLC-MS/MS analysis (reference value: 4702 +/- 885 pg/ml); assay type: functional; conditions: time 105 min, 1.75 h
[5] = test system: Macrophage cell line; assay: Effect on lipid mediator formation in human M1-like phenotype MDM cells by measuring 4-HDHA formation at 10 uM pre-incubated for 15 mins followed by SACM stimulation and measured after 90 mins by UPLC-MS/MS analysis (reference value: 58 +/- 9 pg/ml); assay type: functional; conditions: time 105 min, 1.75 h
[6] = target: T1, Bifunctional epoxide hydrolase 2 (Homo sapiens) (UniProt P34913); assay: Inhibition of human sEH assessed as enzyme remaining activity at 10 uM relative to control
T1 sequence (whole entry): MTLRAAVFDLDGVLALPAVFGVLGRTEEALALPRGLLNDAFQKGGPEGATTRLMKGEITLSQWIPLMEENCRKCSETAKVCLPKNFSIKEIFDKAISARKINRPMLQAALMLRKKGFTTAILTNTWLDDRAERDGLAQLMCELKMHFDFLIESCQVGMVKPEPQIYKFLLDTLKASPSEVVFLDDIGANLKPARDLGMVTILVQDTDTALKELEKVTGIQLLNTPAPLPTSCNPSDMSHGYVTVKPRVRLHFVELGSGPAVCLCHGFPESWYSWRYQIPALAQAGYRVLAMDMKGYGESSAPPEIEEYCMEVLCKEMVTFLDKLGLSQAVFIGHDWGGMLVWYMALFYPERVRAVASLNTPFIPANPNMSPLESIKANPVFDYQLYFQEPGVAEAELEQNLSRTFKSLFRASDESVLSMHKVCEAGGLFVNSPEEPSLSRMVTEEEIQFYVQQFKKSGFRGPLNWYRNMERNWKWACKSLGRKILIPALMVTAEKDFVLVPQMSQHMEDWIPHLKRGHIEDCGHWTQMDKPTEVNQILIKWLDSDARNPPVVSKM

[7] = test system: Macrophage cell line; assay: Effect on lipid mediator formation in human M2-like phenotype MDM cells by measuring 7-HDHA formation at 10 uM pre-incubated for 15 mins followed by SACM stimulation and measured after 90 mins by UPLC-MS/MS analysis relative to control; assay type: functional; conditions: time 105 min, 1.75 h
[8] = test system: Macrophage cell line; assay: Effect on lipid mediator formation in human M1-like phenotype MDM cells by measuring 17-HDHA formation at 10 uM pre-incubated for 15 mins followed by SACM stimulation and measured after 90 mins by UPLC-MS/MS analysis (reference value: 360 +/- 89 pg/ml); assay type: functional; conditions: time 105 min, 1.75 h
[9] = test system: Macrophage cell line; assay: Effect on lipid mediator formation in human M2-like phenotype MDM cells by measuring PDX1 formation at 10 uM pre-incubated for 15 mins followed by SACM stimulation and measured after 90 mins by UPLC-MS/MS analysis relative to control; assay type: functional; conditions: time 105 min, 1.75 h
[10] = test system: Macrophage cell line; assay: Effect on lipid mediator formation in human M2-like phenotype MDM cells by measuring 15-HETE formation at 10 uM pre-incubated for 15 mins followed by SACM stimulation and measured after 90 mins by UPLC-MS/MS analysis relative to control; assay type: functional; conditions: time 105 min, 1.75 h
[11] = test system: Macrophage cell line; assay: Effect on lipid mediator formation in human M1-like phenotype MDM cells by measuring 5-HEPE formation at 10 uM pre-incubated for 15 mins followed by SACM stimulation and measured after 90 mins by UPLC-MS/MS analysis (reference value: 560 +/- 160 pg/ml); assay type: functional; conditions: time 105 min, 1.75 h
[12] = target: T2, Prostaglandin E synthase (Homo sapiens) (UniProt O14684); assay: Inhibition of human mPGES-1 at 10 uM relative to control
T2 sequence (whole entry): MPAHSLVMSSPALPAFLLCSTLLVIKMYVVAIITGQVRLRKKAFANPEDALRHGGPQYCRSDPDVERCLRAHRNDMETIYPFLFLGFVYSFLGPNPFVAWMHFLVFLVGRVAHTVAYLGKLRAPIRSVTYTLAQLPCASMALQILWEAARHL

[13] = test system: Macrophage cell line; assay: Effect on lipid mediator formation in human M1-like phenotype MDM cells by measuring DHA formation at 10 uM pre-incubated for 15 mins followed by SACM stimulation and measured after 90 mins by UPLC-MS/MS analysis relative to control; assay type: functional; conditions: time 105 min, 1.75 h
[14] = test system: Macrophage cell line; assay: Effect on lipid mediator formation in human M2-like phenotype MDM cells by measuring 4-HDHA formation at 10 uM pre-incubated for 15 mins followed by SACM stimulation and measured after 90 mins by UPLC-MS/MS analysis relative to control; assay type: functional; conditions: time 105 min, 1.75 h
[15] = test system: Macrophage cell line; assay: Effect on lipid mediator formation in human M1-like phenotype MDM cells by measuring PGF2alpha formation at 10 uM pre-incubated for 15 mins followed by SACM stimulation and measured after 90 mins by UPLC-MS/MS analysis (reference value: 471 +/- 100 pg/ml); assay type: functional; conditions: time 105 min, 1.75 h
[16] = test system: Macrophage cell line; assay: Effect on lipid mediator formation in human M2-like phenotype MDM cells by measuring PGD2 formation at 10 uM pre-incubated for 15 mins followed by SACM stimulation and measured after 90 mins by UPLC-MS/MS analysis (reference value: 48 +/- 13 pg/ml); assay type: functional; conditions: time 105 min, 1.75 h
[17] = test system: Macrophage cell line; assay: Effect on lipid mediator formation in human M2-like phenotype MDM cells by measuring 5-HETE formation at 10 uM pre-incubated for 15 mins followed by SACM stimulation and measured after 90 mins by UPLC-MS/MS analysis relative to control; assay type: functional; conditions: time 105 min, 1.75 h
[18] = test system: Macrophage cell line; assay: Effect on lipid mediator formation in human M2-like phenotype MDM cells by measuring TXB2 formation at 10 uM pre-incubated for 15 mins followed by SACM stimulation and measured after 90 mins by UPLC-MS/MS analysis relative to control; assay type: functional; conditions: time 105 min, 1.75 h
[19] = test system: Macrophage cell line; assay: Effect on lipid mediator formation in human M1-like phenotype MDM cells by measuring 5-HEPE formation at 10 uM pre-incubated for 15 mins followed by SACM stimulation and measured after 90 mins by UPLC-MS/MS analysis relative to control; assay type: functional; conditions: time 105 min, 1.75 h
[20] = test system: Macrophage cell line; assay: Effect on lipid mediator formation in human M2-like phenotype MDM cells by measuring PGF2alpha formation at 10 uM pre-incubated for 15 mins followed by SACM stimulation and measured after 90 mins by UPLC-MS/MS analysis relative to control; assay type: functional; conditions: time 105 min, 1.75 h
[21] = test system: Macrophage cell line; assay: Effect on lipid mediator formation in human M1-like phenotype MDM cells by measuring 12-HETE formation at 10 uM pre-incubated for 15 mins followed by SACM stimulation and measured after 90 mins by UPLC-MS/MS analysis relative to control; assay type: functional; conditions: time 105 min, 1.75 h

For `Oc1ccc(CCC2CCC(c3ccc(O)cc3)CO2)cc1` (configuration not stated), the Activity [1] was 75%, the Activity [2] was 58 pg/mL and the inhibition [3] was “inactive”. The Activity [4] was 6992 pg/mL, the Activity [5] was 44 pg/mL and the Activity [6] was 103%. For the same compound, the Activity [7] was 116%, the Activity [8] was 485 pg/mL and the Activity [9] was 116%. For the same compound, the Activity [10] was 144%, the Activity [11] was 98 pg/mL and the inhibition [12] was “inactive”. The Activity [13] was 94%, the Activity [14] was 100% and the Activity [15] was 331 pg/mL. It also gave an Activity [16] of 62 pg/mL, an Activity [17] of 25% and an Activity [18] of 86%. For the same compound, the Activity [19] was 18%, the Activity [20] was 80% and the Activity [21] was 87%.

For `COc1ccc(C2=C/C(=C/c3ccc(O)cc3O)C(=O)O2)cc1`, the Activity [1] was 80%, the Activity [2] was 89 pg/mL and the inhibition [3] was “inactive”. For the same compound, the Activity [4] was 8152 pg/mL, the Activity [5] was 47 pg/mL and the Activity [6] was 71.5%. The Activity [7] was 121%, the Activity [8] was 380 pg/mL and the Activity [9] was 144%. For the same compound, the Activity [10] was 136%, the Activity [11] was 62 pg/mL and the inhibition [12] was “inactive”. For the same compound, the Activity [13] was 108%, the Activity [14] was 85% and the Activity [15] was 419 pg/mL. For the same compound, the Activity [16] was 96 pg/mL, the Activity [17] was 9% and the Activity [18] was 76%. For the same compound, the Activity [19] was 11%, the Activity [20] was 125% and the Activity [21] was 87%.
